Test results published in paper PMC8464850, “Sulfonium Ligands of the α7 nAChR” (Molecules, 2021).
Read-outs that look alike come from different tables or passages of the source. Values belong to the molecule of their own block, whether it stands above or below them.

Tests used:
α7 nAChR [1] = biological target: T1, α7 nAChR (Homo sapiens, UniProt P36544); assay: α7 responses on co-application with the type II PAM TQS (silent agonism); assay type: cell-based; conditions: for α7 functional classification (silent agonist / inactive): inactive alone, active with a PAM = silent agonist; for response when co-applied with TQS: 100 µM compound with 30 µM racemic TQS, net charge
T1 construct: expressed in transfected cells; host or cells: Xenopus laevis oocytes (injected RNA)
Description: (§1) Compounds were co-applied at a concentration of 100 µM with 30 µM racemic TQS (Figure 3A). All compounds except S4, S5, and S8 gave large responses when co-applied with TQS, consistent with silent agonism of α7 (see Table S1 for ANOVA). Active compounds were also evaluated across a range of concentrations with the alternative PAM, PNU-120596 (Figure 3B). The curve-fit values for Imax (Table 1) should be taken only as approximation of the relative efficacies of the compounds, due to the large variability frequently observed in PNU-120596-potentiated responses, as evidenced by the large SEMs of the responses obtained with high concentrations.
(§2) Figure 3 Responses of α7 nAChR to sulfonium compounds coapplied with PAMs. (A) Potentiation of α7 responses with 30 µM racemic TQS. Shown are the average net-charge responses of seven or eight oocytes ± SEM. (B) Concentration-response studies of peak currents generated by compounds that gave positive responses with TQS, coapplied with 10 µM PNU-120596. Each point represents the average (±SEM) of at least four oocytes.
The human nAChR clones were obtained from Jon Lindstrom (University of Pennsylvania, Philadelphia, PA, USA). Mouse muscle subunit clones were obtained from Jim Boulter (Salk Institute, La Jolla, CA, USA) and Paul Gardner (Dartmouth, Hanover, NH, USA). The human resistance-to-cholinesterase 3 (RIC3) clone was obtained from Millet Treinin (Hebrew University, Jerusalem, Israel) and co-injected with α7 to improve the level and speed of α7 receptor expression without affecting the pharmacological properties of the receptors. Subsequent to linearization and purification of the plasmid DNAs, RNAs were prepared using the mMessage mMachine in vitro RNA transcription kit (Ambion, Austin, TX, USA).
(§3) Experiments were conducted using OpusXpress 6000A (Molecular Devices, Union City, CA, USA). Both the voltage and current electrodes were filled with 3 M KCl. Oocytes were voltage-clamped at −60 mV at room temperature (24 °C). The oocytes were bath-perfused with Ringer’s solution (115 mM NaCl, 2.5 mM KCl, 1.8 mM CaCl2, 10 mM HEPES, and 1 μM atropine, pH 7.2) at 2 mL/min for α7 receptors, or 4 mL/min for heteromeric nAChR. To evaluate the effects of experimental compounds, responses were compared to control ACh-evoked responses, defined as the average of two initial applications of ACh made before test applications. ACh control concentrations were 60 µM for α7 receptors; 100 µM for α4(3)β2(2) and α3β4 receptors; 30 µM for α4β2α6β2β3 and muscle-type (αβ1εδ) receptors; and 10 µM for α4(3)β2(2) and α4(2)β2(2)α5 receptors.
(§4) Solutions were applied from 96-well plates via disposable tips. Drug applications were 12 s in duration, followed by 181 s washout periods for α7 receptors, or 6 s in duration followed by 301 s washout periods for heteromeric nAChR. The responses were calculated as both peak current amplitudes and net charge, as previously described. Data were collected at 50 Hz, filtered at 20 Hz for α7 receptors or filtered at 5 Hz for heteromeric nAChR, and analyzed by Clampfit (Molecular Devices, San Jose, CA, USA) and Excel (Microsoft, Redmond, WA, USA). Data were expressed as means ± SEM from at least four oocytes for each experiment and plotted with Kaleidagraph 4.5.2 (Abelbeck Software, Reading, PA, USA). Multi-cell averages were calculated for comparisons of complex responses. Averages of the normalized data were calculated for each of the 10,322 points in each of the 206.44 s traces (acquired at 50 Hz), as well as the standard errors for those averages.

α3β4 nAChR = biological target: T2, α3β4 nAChR (Homo sapiens, UniProt P30926+P32297); assay: Inhibition of α3β4 100 µM ACh-evoked peak currents; assay type: cell-based; conditions: co-application with 100 µM ACh, peak currents
T2 construct: expressed in transfected cells; host or cells: Xenopus laevis oocytes (injected RNA)
Description: (§5) Although none of the other sulfonium compounds activated neuronal heteromeric receptors, several of them produced inhibition of ACh-evoked responses. Shown in Figure 7A are concentration-response studies for the compounds that were active antagonists of α3β4 nAChR (Table 3). Some compounds were also tested as antagonists of α4β2 subtypes formed with concatamers (Figure 7B).
Figure 7 Inhibition of heteromeric nAChR by sulfonium compounds. (A) Inhibition of α3β4 100 µM ACh-evoked peak currents by the co-application of the sulfonium compounds. Data are the averaged of six to eight oocytes (±SEM). To confirm the stability of the ACh responses, applications of ACh plus the sulfonium compounds were alternated with applications of ACh alone. (B) Inhibition of ACh control peak-current responses of α4-containing nAChR formed with concatamers by 100 µM of the sulfonium compounds indicated. Data are the average of six to eight oocytes (±SEM).
as §3, §4

α7 nAChR [2] = biological target: T1, α7 nAChR; assay: α7 concentration-response on co-application with 10 µM PNU-120596; assay type: cell-based; conditions: peak currents, co-applied with 10 µM PNU-120596, Hill fit; for IMax (PNU Activation): approximation only
Description: as §1, §2, §3, §4

α7 nAChR [3] = biological target: T1, α7 nAChR; assay: Inhibition of α7 ACh-evoked responses; assay type: cell-based; conditions: for effect on 60 µM ACh response at 1 mM: compound 1 mM co-applied with 60 µM ACh; for inhibition at 100 µM: read-out: inhibition of responses to 60 µM ACh; for inhibition of responses to 60 µM ACh: compound co-applied at 100 µM
Description: Figure 4 Effects sulfonium compounds on α7 ACh-evoked net-charge responses. (A) Effects of the sulfonium compounds at 100 µM co-applied with 60 µM relative to responses to 60 µM ACh applied alone. Data are the averages (±SEM) from seven or eight cells under each condition. (B) Effects of select sulfonium compounds at 1 mM co-applied with 60 µM relative to responses to 60 µM ACh applied alone. Data are the averages (±SEM) from seven or eight cells under each condition. Statistical significance was determined by pairwise t-test with p values corrected for multiple comparisons; * p < 0.05, ** p < 0.001.
The sulfonium compounds that were active with TQS but produced little inhibition of ACh response at a concentration of 100 µM were tested as inhibitors of ACh response at a concentration of 1 mM (Figure 4B).
We tested S8 across a range of concentrations for its ability to inhibit 60 µM ACh responses (Figure 5A). Note that we use 60 µM as an ACh control because this concentration gives nearly maximal (93%) net-charge responses, with the time course of the responses roughly following the speed of solution exchange. […] We tested whether inhibition of α7 responses by S8 was surmountable by increasing ACh concentration, consistent with a competitive mechanism of inhibition. However, since α7 responses to concentrations of ACh greater than 60 µM occur more rapidly than solution exchange in the chamber, we first pre-applied 5 µM S8 prior to the co-application of 5 µM S8 with either 60 µM or 1 mM ACh (Figure 5B). The 60 µM net-charge responses were reduced to 28 ± 2% of controls (n = 8) and 60 µM peak currents to 21 ± 3 % controls. The 1 mM net-charge responses were reduced to 56 ± 6 % of those obtained without S8 co-application, although the S8 co-application increased the peak-current amplitudes compared to 60 µM controls from 1.78 ± 0.15 to 3.72 ± 0.81 (n = 8).
Figure 5 Inhibition of α7 ACh-evoked responses by S8. (A) Concentration-response studies of α7 net-charge responses to 60 µM ACh co-applied with increasing concentrations of S8. To confirm the stability of the ACh responses, applications of ACh plus S8 were alternated with applications of ACh alone. Data are the averages of eight cells (±SEM). See text for curve-fit values. (B) Effects of 5 µM S8 on responses to either 60 µM or 1 mM ACh. The traces shown across the top are the averaged raw data from seven cells, each normalized to the peak current of the first ACh control response shown. In order to assure that the S8 was present at 5 µM throughout the ACh-evoked responses, a 30 s pre-application was made of 5 µM S8 alone. The lower traces show averaged responses to 60 µM or 1 mM ACh alone or with the 5 µM S8 pre- and co-application. The details of the data are described in Methods.
as §3
Solutions were applied from 96-well plates via disposable tips. Drug applications were 12 s in duration, followed by 181 s washout periods for α7 receptors, or 6 s in duration followed by 301 s washout periods for heteromeric nAChR. […]

[4] = system: α4β2 subtypes formed with concatamers; assay: Inhibition of ACh control peak-current responses of α4-containing nAChR formed with concatamers; assay type: cell-based, human; conditions: 100 µM compound, Figure 7B
Description: as §5
Figure 7 Inhibition of heteromeric nAChR by sulfonium compounds. (A) Inhibition of α3β4 100 µM ACh-evoked peak currents by the co-application of the sulfonium compounds. Data are the averaged of six to eight oocytes (±SEM). […]
as §4, with “Drug applications were 12 s in duration, followed by 181 s washout periods for α7 receptors, or 6 s in duration followed by 301 s washout periods for heteromeric nAChR.” left out

pKa by titration = assay type: physicochemical
From the text: One of the questions that emerges from the data is why aromatic sulfoniums as structurally similar as S5, S9, and S10 provide different responses when coapplied with TQS. Indeed, compounds S5 and S9 virtually overlap in their best docked poses (Supplementary Figure S1), but the α7 response of S9 and TQS was dramatically greater than that of S5 and TQS (p < 0.001, Table S1). The formation of cation–pi interactions is a key feature of the binding of nicotinic orthosteric ligands, and the electronic distribution of the cation can be compared qualitatively in a series of compounds using molecular electrostatic potentials (MEPs). Analysis of the MEPs shown in Figure 9 reveal that the substituents on the benzene ring can modulate the intensity of the positive charge on the sulfonium center. Compound S5, for instance, has two hydroxyl groups which are strongly electron donating, and in comparison to compound S9, which has only one hydroxyl group, the intensity of the positive charge is […]. Another factor may be that a lone pair on the ortho hydroxyl substituent is donating electron density through space to the neighboring sulfonium, redistributing its positive charge. Compound S10 also has an ortho hydroxyl group, but unlike compound S5, compound S10 also has a nitro group, which is a strong electron-withdrawing group that may offset the electron-donating impact of the ortho hydroxyl group. Inspection of the MEP surface shown in Figure 9 does indicate that, relative to S5, the S10 sulfonium bears greater positive electrostatic potential. Given that compounds such as para-nitrophenol are acidic, with a pKa of ~7 for the phenolic hydroxyl, we also considered whether the deprotonated forms of S5, S9, and S10 might be accessible at the pH of our experiments.
Thus, all three compounds have varying proportions of the phenolic OH in the phenoxide form at the pH of Ringers solution used in the experiments. […] Future work on analogs of these compounds may be focused on substituents that are non-ionizable, and thus preserve a positive molecular charge derived from the sulfonium center.

α7 = conditions: alone and co-applied with an α7 PAM; cited from earlier work
[5] = 5 µM S8 pre-applied and co-applied

T2 sequence (P32297 32-505): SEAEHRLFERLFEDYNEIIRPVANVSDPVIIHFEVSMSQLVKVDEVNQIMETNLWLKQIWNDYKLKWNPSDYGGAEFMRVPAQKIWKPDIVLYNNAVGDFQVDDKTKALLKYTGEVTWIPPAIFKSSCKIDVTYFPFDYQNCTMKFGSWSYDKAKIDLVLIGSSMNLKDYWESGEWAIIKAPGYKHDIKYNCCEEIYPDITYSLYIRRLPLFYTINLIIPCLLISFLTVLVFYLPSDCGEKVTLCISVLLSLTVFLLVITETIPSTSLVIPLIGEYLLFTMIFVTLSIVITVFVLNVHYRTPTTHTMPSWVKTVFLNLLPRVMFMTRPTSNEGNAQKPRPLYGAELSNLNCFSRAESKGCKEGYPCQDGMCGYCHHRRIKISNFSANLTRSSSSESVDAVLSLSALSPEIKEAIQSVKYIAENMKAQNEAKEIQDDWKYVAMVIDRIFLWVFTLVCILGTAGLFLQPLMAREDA
T2 sequence (P30926 22-498): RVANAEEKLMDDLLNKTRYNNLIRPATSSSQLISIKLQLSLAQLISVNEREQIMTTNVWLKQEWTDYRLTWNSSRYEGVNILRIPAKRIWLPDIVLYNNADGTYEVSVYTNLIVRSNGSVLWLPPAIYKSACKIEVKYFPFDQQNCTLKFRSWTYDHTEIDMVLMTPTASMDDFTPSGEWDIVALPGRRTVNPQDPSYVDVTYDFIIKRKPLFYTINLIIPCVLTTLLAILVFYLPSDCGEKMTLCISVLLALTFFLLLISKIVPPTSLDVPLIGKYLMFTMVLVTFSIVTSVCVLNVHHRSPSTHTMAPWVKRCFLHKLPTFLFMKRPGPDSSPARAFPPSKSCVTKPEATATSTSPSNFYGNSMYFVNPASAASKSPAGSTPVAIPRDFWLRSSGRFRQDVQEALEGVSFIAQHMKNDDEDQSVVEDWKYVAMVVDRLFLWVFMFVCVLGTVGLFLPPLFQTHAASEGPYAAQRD
T1 sequence (P36544 23-502): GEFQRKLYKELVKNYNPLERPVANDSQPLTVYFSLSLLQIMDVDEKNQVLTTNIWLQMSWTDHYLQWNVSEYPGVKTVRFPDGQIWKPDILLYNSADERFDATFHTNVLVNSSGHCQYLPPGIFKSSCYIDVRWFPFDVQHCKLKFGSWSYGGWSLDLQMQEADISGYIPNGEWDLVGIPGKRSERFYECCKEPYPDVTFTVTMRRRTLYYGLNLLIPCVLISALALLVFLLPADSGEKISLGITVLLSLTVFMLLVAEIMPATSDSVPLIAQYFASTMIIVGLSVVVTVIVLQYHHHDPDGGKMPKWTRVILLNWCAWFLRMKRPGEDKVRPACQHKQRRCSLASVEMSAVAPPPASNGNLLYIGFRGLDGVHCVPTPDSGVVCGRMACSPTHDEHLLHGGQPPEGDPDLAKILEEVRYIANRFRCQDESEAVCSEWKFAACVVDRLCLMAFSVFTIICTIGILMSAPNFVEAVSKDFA

SMILES: CC[S+](CC)CC [Compound S11, triethylsulfonium iodide]
α7 functional classification (silent agonist / inactive) (α7 nAChR [1]): silent agonist
IC50 (α3β4 nAChR): 108 ± 20 µM
IMax (PNU Activation) (α7 nAChR [2]): >1.8
effect on 60 µM ACh response at 1 mM (α7 nAChR [3]): not statistically significant

SMILES: C[S+](C)CC(=O)c1ccccc1.F[B-](F)(F)F [Compound S7, dimethyl(2-oxo-2-phenylethyl)sulfonium tetrafluoroborate]
α7 functional classification (silent agonist / inactive) (α7 nAChR [1]): silent agonist activity
IMax (PNU Activation) (α7 nAChR [2]): >1.1

IC50 (α3β4 nAChR): 3.4 ± 0.4 µM
60 µM ACh peak currents, % controls (α7 nAChR [3]; [5]): 21 ± 3%
1 mM ACh net-charge responses, % of those obtained without S8 co-application (α7 nAChR [3]; [5]): 56 ± 6%
remaining activity at 5 µM (α7 nAChR [3]; 5 µM S8 pre-applied and co-applied, n = 8, read-out: 60 µM ACh net-charge responses, % of controls): 28 ± 2%
IC50 (α7 nAChR [3]; net charge, co-application, eight cells, read-out: IC50 for inhibition of 60 µM ACh responses): 4.9 ± 2.7 µM
1 mM ACh peak-current amplitudes compared to 60 µM controls (α7 nAChR [3]; with 5 µM S8 pre- and co-application, n = 8): 3.72 ± 0.81
SMILES: C[S+](Cc1ccccc1)Cc1ccccc1 [Compound S8, dibenzyl(methyl)sulfonium tetrafluoroborate]
relative antagonist activity [4]: most active antagonist

SMILES: CCOC(=O)C[S+](C)C.[Br-] [Compound S2, (2-ethoxy-2-oxoethyl)dimethylsulfonium bromide]
α7 functional classification (silent agonist / inactive) (α7 nAChR [1]): efficacious silent agonist
IMax (PNU Activation) (α7 nAChR [2]): 16 ± 6
effect on 60 µM ACh response at 1 mM (α7 nAChR [3]): significant inhibition
inhibition at 100 µM (α7 nAChR [3]): ≤ 10%

SMILES: C[S+](C)c1ccc(O)cc1O [Compound S5, (2,4-dihydroxyphenyl)dimethylsulfonium trifluoromethanesulfonate]
response when co-applied with TQS (α7 nAChR [1]): did not generate responses
α7 functional classification (silent agonist / inactive) (α7 nAChR [1]): simply inactive
inhibition of responses to 60 µM ACh (α7 nAChR [3]; net charge): failed to produce inhibition
pKa (pKa by titration; phenolic hydroxyl, data not shown for S9, S10, read-out: pKa): ~6.3
pKa (pKa by titration; read-out: pKa for the second hydroxyl): 9.2

SMILES: OCC[S+](CCO)CCO.[Br-] [Compound S4, tris(2-hydroxyethyl)sulfonium bromide]
response when co-applied with TQS (α7 nAChR [1]): did not generate responses
α7 functional classification (silent agonist / inactive) (α7 nAChR [1]): simply inactive
inhibition of responses to 60 µM ACh (α7 nAChR [3]; net charge): failed to produce inhibition

SMILES: COc1ccc([N+](=O)[O-])cc1C[S+](C)C.[Br-] [Compound S3, (2-methoxy-5-nitrobenzyl)dimethylsulfonium bromide]
α7 functional classification (silent agonist / inactive) (α7 nAChR [1]): silent agonist activity
IC50 (α3β4 nAChR): 18 ± 2.6 µM
IMax (PNU Activation) (α7 nAChR [2]): 22 ± 2.5
EC50 (α7 nAChR [2]; read-out: EC50 (PNU Activation)): 263 ± 23 µM
inhibition at 100 µM (α7 nAChR [3]): ~50%

SMILES: CC[S+]1CCN(c2ccccc2)CC1.O=S(=O)([O-])C(F)(F)F [1-ethyl-4-phenylthiomorpholin-1-ium trifluoromethanesulfonate]
behaviour at α7 (α7): inactive when applied alone but active when co-applied with an α7 PAM
